Results reported in US20260083130A1, “NOVEL SULFONATE BENZAMIDE COMPOUNDS FOR CONTROLLING INVERTEBRATE PESTS” (FMC CORPORATION, priority 2022, published 2026).
Read-outs that look alike come from different tables or passages of the source.

Experiments:
Format in all cases: in vivo
[1] = test system: cotton melon aphid (Aphis gossypii (Glover)); assay: Test E: control of cotton melon aphid, spray on okra plant; conditions: 144 h; for mortality at 2 ppm: sprayed at 2 ppm; for mortality at 10 ppm: sprayed at 10 ppm
Experimental: (§1) Test compounds were formulated using a solution containing 10% acetone, 90% water and 300 ppm Activator 90® non-ionic surfactant (Loveland Products, Loveland, Colorado, USA). The formulated compounds were applied in 1 mL of liquid through an atomized nozzle positioned 1.27 cm (0.5 inches) above the top of each test unit. Test compounds were sprayed at the rates indicated, and each test was replicated three times.
For evaluating control of cotton melon aphid (Aphis gossypii (Glover)) through contact and/or systemic means, the test unit consisted of a small open container with a 5-day-old okra plant inside. This was pre-infested with 30-40 insects on a piece of leaf according to the cut-leaf method, and the soil of the test unit was covered with a layer of sand.
Test compounds were formulated and sprayed at 250, 50, 10, and 2 ppm with three replications as described above. After spraying, the test units were maintained in a growth chamber for 6 days at 19° C. and 70% relative humidity. Each test unit was then visually assessed for insect mortality.

[2] = test system: Green Peach Aphid (Myzus persicae (Sulzer)); assay: Test D: control of Green Peach Aphid, spray on radish plant; conditions: 144 h, assessed after 6 days; for mortality at 250 ppm: sprayed at 250 ppm
Experimental: as §1
For evaluating control of Green Peach Aphid (Myzus persicae (Sulzer)) through contact and/or systemic means, the test unit consisted of a small open container with a 12- to 15-day-old radish plant inside. Prior to compound application, each test unit was pre-infested by placing on a leaf of the test plant 30-40 aphids on a piece of leaf excised from a culture plant (cut-leaf method). The aphids moved onto the test plant as the leaf piece desiccated. After pre-infestation, the soil of the test unit was covered with a layer of sand.
Test compounds were formulated and sprayed at 250 and 50 ppm with three replications as described above. After spraying of the formulated test compound, each test unit was allowed to dry for 1 hour and then a black, screened cap was placed on top. The test units were held for 6 days in a growth chamber at 19-21° C. and 50-70% relative humidity. Each test unit was then visually assessed for insect mortality.

[3] = test system: Corn Planthopper (Peregrinus maidis (Ashmead)); assay: Test C: control of Corn Planthopper, spray on corn plant; conditions: 144 h, nymphs, assessed after 6 days; for mortality at 50 ppm: sprayed at 50 ppm; for mortality at 250 ppm: sprayed at 250 ppm
Experimental: as §1
For evaluating control of Corn Planthopper (Peregrinus maidis (Ashmead)) through contact and/or systemic means, the test unit consisted of a small open container with a 3- to 4-day-old corn (maize) plant inside. White sand was added to the top of the soil prior to application of the test compound.
Test compounds were formulated and sprayed at 250 and 50 ppm with three replications as described above. After spraying of the formulated test compound, the test units were allowed to dry for 1 h before they were post-infested with ˜15-20 nymphs (18-to-21-day-old). A black, screened cap was placed on the top of each test unit, and the test units were held for 6 days in a growth chamber at 22 to 24° C. and 50-70% relative humidity. Each test unit was then visually assessed for insect mortality.

[4] = sprayed at 50 ppm, assessed after 6 days, read-out: mortality
[5] = sprayed at 250 ppm, assessed after 6 days, read-out: mortality

CC(NC(=O)c1cc(Br)cc(OS(=O)(=O)C(F)(F)F)c1)c1ncnn1-c1ncccn1 (centres unmarked) [Compound 15, 3-Bromo-5-[[[1-[1-(2-pyrimidinyl)-1H-1,2,4-triazol-5-yl]ethyl]amino]carbonyl]phenyl 1,1,1-trifluoromethanesulfonate]
≥ 80%: mortality at 50 ppm [1, 4] | mortality at 250 ppm [1, 5]

C[C@@H](NC(=O)c1cc(OS(=O)(=O)C(F)(F)F)cc(C(F)(F)F)c1)c1ncnn1-c1ncccn1 [Compound 13, (R)3-[[[1-[1-(2-Pyrimidinyl)-1H-1,2,4-triazol-5-yl]ethyl]amino]carbonyl]-5-(trifluoromethyl)phenyl 1,1,1-trifluoromethanesulfonate; (+) enantiomer]
≥ 80%: mortality at 250 ppm [2] | mortality at 2 ppm ([1]; assessed after 6 days) | mortality at 10 ppm ([1]; assessed after 6 days) | mortality at 50 ppm [1, 4] | mortality at 250 ppm [1, 5] | mortality at 50 ppm [3] | mortality at 250 ppm [3]

CCN(C(=O)c1cc(OS(=O)(=O)C(F)(F)F)cc(C(F)(F)F)c1)C(C)c1ncnn1-c1ncccn1 (centres unmarked) [Compound 27, 3-[[ethyl[1-[1-(2-pyrimidinyl)-1H-1,2,4-triazol-5-yl]ethyl]amino]carbonyl]-5-(trifluoromethyl)phenyl 1,1,1-trifluoromethanesulfonate]
≥ 80%: mortality at 50 ppm [1, 4] | mortality at 250 ppm [1, 5] | mortality at 250 ppm [3]

CC(NC(=O)c1cc(OS(=O)(=O)C(F)(F)F)cc([N+](=O)[O-])c1)c1ncnn1-c1ncccn1 (centres unmarked) [Compound 46]
≥ 80%: mortality at 50 ppm [1, 4] | mortality at 250 ppm [1, 5]

CC(NC(=O)c1cc(Cl)cc(OS(=O)(=O)C(F)(F)F)c1)c1ncnn1-c1ncccn1 (centres unmarked) [Compound 4, 3-Chloro-5-[[[1-[1-(2-pyrimidinyl)-1H-1,2,4-triazol-5-yl]ethyl]amino]carbonyl]phenyl 1,1,1-trifluoromethanesulfonate]
≥ 80%: mortality at 50 ppm ([2]; sprayed at 50 ppm) | mortality at 250 ppm [2] | mortality at 2 ppm ([1]; assessed after 6 days) | mortality at 10 ppm ([1]; assessed after 6 days) | mortality at 50 ppm [1, 4] | mortality at 250 ppm [1, 5] | mortality at 250 ppm [3]

CCN(C(=O)c1cc(Cl)cc(OS(=O)(=O)C(F)(F)F)c1)C(C)c1ncnn1-c1ncccn1 (centres unmarked) [Compound 50, 3-chloro-5-[[ethyl[1-[1-(2-pyrimidinyl)-1H-1,2,4-triazol-5-yl]ethyl]amino]carbonyl]phenyl 1,1,1-trifluoromethanesulfonate]
≥ 80%: mortality at 250 ppm [2] | mortality at 50 ppm [1, 4] | mortality at 250 ppm [1, 5] | mortality at 250 ppm [3]

COC(=O)N(C(=O)c1cc(OS(=O)(=O)C(F)(F)F)cc(C(F)(F)F)c1)C(C)c1ncnn1-c1ncccn1 (centres unmarked) [Compound 48]
≥ 80%: mortality at 50 ppm [1] | mortality at 250 ppm [1]

C[C@@H](NC(=O)c1cc(Cl)cc(OS(=O)(=O)C(F)(F)F)c1)c1ncnn1-c1ncccn1 [Compound 9, 3-Chloro-5-[[[1-[1-(2-pyrimidinyl)-1H-1,2,4-triazol-5-yl]ethyl]amino]carbonyl]phenyl 1,1,1-trifluoromethanesulfonate; (+) enantiomer]
≥ 80%: mortality at 250 ppm [2] | mortality at 50 ppm [1, 4] | mortality at 250 ppm [1, 5] | mortality at 50 ppm [3] | mortality at 250 ppm [3]

CC(NC(=O)c1cc(Cl)cc(OS(=O)(=O)CC(F)(F)F)c1)c1ncnn1-c1ncccn1 (centres unmarked) [Compound 52]
≥ 80%: mortality at 250 ppm [1, 5]

CC(c1ncnn1-c1ncccn1)N(CC1CC1)C(=O)c1cc(OS(=O)(=O)C(F)(F)F)cc(C(F)(F)F)c1 (centres unmarked) [Compound 11, 3-[[(Cyclopropylmethyl)[1-[1-(2-pyrimidinyl)-1H-1,2,4-triazol-5-yl]ethyl]amino]carbonyl]-5-(trifluoromethyl)phenyl 1,1,1-trifluoromethanesulfonate]
≥ 80%: mortality at 250 ppm [2] | mortality at 2 ppm ([1]; assessed after 6 days) | mortality at 10 ppm ([1]; assessed after 6 days) | mortality at 50 ppm [1, 4] | mortality at 250 ppm [1, 5] | mortality at 50 ppm [3] | mortality at 250 ppm [3]

CC(NC(=O)c1cc(OS(=O)(=O)C(F)(F)F)cc(C(F)(F)F)c1)c1ncnn1-c1ncccn1 (centres unmarked) [Compound 2, 3-[[[1-[1-(2-Pyrimidinyl)-1H-1,2,4-triazol-5-yl]ethyl]amino]carbonyl]-5-(trifluoromethyl)phenyl 1,1,1-trifluoromethanesulfonate]
≥ 80%: mortality at 2 ppm ([1]; assessed after 6 days) | mortality at 10 ppm ([1]; assessed after 6 days) | mortality at 50 ppm [1, 4] | mortality at 250 ppm [1, 5]

CC(NC(=O)c1cc(OS(=O)(=O)CC(F)(F)F)cc(C(F)(F)F)c1)c1ncnn1-c1ncccn1 (centres unmarked) [Compound 28]
≥ 80%: mortality at 250 ppm [1, 5]

CC(NC(=O)c1cc(OS(=O)(=O)C(F)F)cc(C(F)(F)F)c1)c1ncnn1-c1ncccn1 (centres unmarked) [Compound 38]
≥ 80%: mortality at 250 ppm [1, 5]

CC(c1ncnn1-c1ncccn1)N(CC1CC1)C(=O)c1cc(Cl)cc(OS(=O)(=O)C(F)(F)F)c1 (centres unmarked) [Compound 10, 3-Chloro-5-[[(cyclopropylmethyl)[1-[1-(2-pyrimidinyl)-1H-1,2,4-triazol-5-yl]ethyl]amino]carbonyl]phenyl 1,1,1-trifluoromethanesulfonate]
≥ 80%: mortality at 2 ppm ([1]; assessed after 6 days) | mortality at 10 ppm ([1]; assessed after 6 days) | mortality at 50 ppm [1, 4] | mortality at 250 ppm [1, 5] | mortality at 50 ppm [3] | mortality at 250 ppm [3]

CC(NC(=O)c1cccc(OS(=O)(=O)c2ccccc2)c1)c1ncnn1-c1ncccn1 (centres unmarked) [Compound 6, 3-[(Phenylsulfonyl)oxy]-N-[1-[1-(2-pyrimidinyl)-1H-1,2,4-triazol-5-yl]ethyl]benzamide]
≥ 80%: mortality at 250 ppm [1, 5]

CC(NC(=O)c1cccc(OS(=O)(=O)C(F)F)c1)c1ncnn1-c1ncccn1 (centres unmarked) [Compound 7, 3-[[[1-[1-(2-Pyrimidinyl)-1H-1,2,4-triazol-5-yl]ethyl]amino]carbonyl]phenyl 1,1-difluoromethanesulfonate]
≥ 80%: mortality at 50 ppm [1, 4] | mortality at 250 ppm [1, 5]

COC(=O)N(C(=O)c1cc(Cl)cc(OS(=O)(=O)C(F)(F)F)c1)C(C)c1ncnn1-c1ncccn1 (centres unmarked) [Compound 20]
≥ 80%: mortality at 50 ppm [1] | mortality at 250 ppm [1]

CC(NC(=O)c1cccc(OS(=O)(=O)C(F)(F)F)c1)c1ncnn1-c1ncccn1 (centres unmarked) [Compound 3, 3-[[[1-[1-(2-Pyrimidinyl)-1H-1,2,4-triazol-5-yl]ethyl]amino]carbonyl]phenyl 1,1,1-trifluoromethanesulfonate]
≥ 80%: mortality at 50 ppm [1, 4] | mortality at 250 ppm [1, 5] | mortality at 250 ppm [3]

C[C@H](NC(=O)c1cc(OS(=O)(=O)C(F)(F)F)cc(C(F)(F)F)c1)c1ncnn1-c1ncccn1 [Compound 12, 3-[[[(1S)-[1-(2-Pyrimidinyl)-1H-1,2,4-triazol-5-yl]ethyl]amino]carbonyl]-5-(trifluoromethyl)phenyl 1,1,1-trifluoromethanesulfonate; (−) enantiomer]
≥ 80%: mortality at 250 ppm [1, 5]

CC(c1ncnn1-c1ncccn1)N(C)C(=O)c1cc(Cl)cc(OS(=O)(=O)C(F)(F)F)c1 (centres unmarked) [Compound 72]
≥ 80%: mortality at 250 ppm [2] | mortality at 2 ppm ([1]; assessed after 6 days) | mortality at 10 ppm ([1]; assessed after 6 days) | mortality at 50 ppm [1, 4] | mortality at 250 ppm [1, 5] | mortality at 50 ppm [3] | mortality at 250 ppm [3]

CC(NC(=O)c1cc(F)cc(OS(=O)(=O)C(F)(F)F)c1)c1ncnn1-c1ncccn1 (centres unmarked) [Compound 14, 3-Fluoro-5-[[[1-[1-(2-pyrimidinyl)-1H-1,2,4-triazol-5-yl]ethyl]amino]carbonyl]phenyl 1,1,1-trifluoromethanesulfonate]
≥ 80%: mortality at 50 ppm [1, 4] | mortality at 250 ppm [1, 5]

CC(NC(=O)c1cc(Cl)cc(OS(=O)(=O)C(F)F)c1)c1ncnn1-c1ncccn1 (centres unmarked) [Compound 39]
≥ 80%: mortality at 250 ppm [1, 5]
